Series [1] in a line: Blood concentration, oral, rats, suspended in CMC aqueous solution (Example 17). The class given is in vivo, Male Wistar rats. Particulars: 50 mg/kg oral, rat; for concentration at 0.5 h / concentration at 1 h / concentration at 4 h: blood, read-out: Blood Concentration of the Compound. The method, then: (§1) Male Wistar rats weighing 180-250 g were fed with only water overnight. The next day the rats were orally administered with 50 mg/kg of a test compound which was dissolved in a buffer solution having pH of 7. The concentration of the compound in blood of the tested animals (one group consisting of 6 animals) was measured 0.5, 1, 2 and 4 hours after the administration by Bioassay method by using Bacillus subtilis ATCC 6633 strain as an indicator bacteria. In the measurement, an ordinary culture medium was employed, and the preparation of the standard solution and other method were carried out in according to Japanese Antibiotical Pharmaceutical Standards. Further, the concentration of the compound in blood was also measured by high performance liquid chromatography. The blood concentration shown below was an average value of each animal group.
The blood concentration of the compounds as obtained in Examples 12-15 and the compounds as obtained in the same manner as in Examples 3 and 12, respectively, was measured. The measurement was carried out in the same manner as Example 16 except that the test compound was suspended in a CMC aqueous solution instead of being dissolved in a buffer solution having pH of 7.

Series [2] is described as follows: Absorption test, oral, rats, solution in buffer pH 7 (Example 16). In kind it is in vivo, Male Wistar rats. The settings on record: blood, 50 mg/kg oral, rat, average of 6, read-out: Blood Concentration of the Compound. The method, then: The absorption test of the compounds as obtained in Examples 1-11 were tested by the following method.
as §1

Consider “7-β-[4-(2'-amino-2'-carboxy)ethylimidazol-2-yl-thioacetamido]-7α-methoxy-3-[(1-methyl-1H-tetrazol-5-yl) thiomethyl]-3-cephem-4-carboxylic acid ditert-butylcarboxymethyl ester [(19)]”, for which the results for the “Blood Concentration of the Compound” value in series [1] (0.5 hr.), in series [1] (1 hr.) and in series [1] (4 hrs.) were 7200 ng/mL, 3900 ng/mL and 1600 ng/mL, respectively.
Consider `CC(=O)NC(Cc1c[nH]c(SCC(=O)NC2C(=O)N3C(C(=O)O)=C(CSc4nnc(C)s4)CSC23)n1)C(=O)O` (stereo not drawn) [(18), 7-β-[4-(2'-methylamido-2'-carboxy)ethylimidazol-2-yl-thioacetamido]-3-[2-(2-methyl-1,3,4-thiazolyl)thiomethyl]-3-cephem-4-carboxylic acid], for which the “Blood Concentration of the Compound” value turned out to be 10300 ng/mL in series [1] (0.5 hr.), 11200 ng/mL in series [1] (1 hr.) and 4900 ng/mL in series [1] (4 hrs.).
`Cn1nnnc1SCC1=C(C(=O)O)N2C(=O)[C@@H](NC(=O)CSc3nc(C[C@H](N)C(=O)O)c[nH]3)[C@H]2SC1` [Example 2, 7-β-[4-(2'-amino-2'-carboxy)ethylimidazol-2-yl-thioacetamido]-3-[(1-methyl-1H-tetrazol-5-yl)thiomethyl]-3-cephem-4-carboxylic acid]: in series [2], the concentration at 0.5 h amounted to 4700 ng/mL, the concentration at 1 h came to 2900 ng/mL, the concentration at 2 h was found to be 2000 ng/mL and the concentration at 4 h was found to be 1000 ng/mL.
The like results for `Cc1nnc(SCC2=C(C(=O)O)N3C(=O)[C@@H](NC(=O)CSc4nc(C[C@H](N)C(=O)O)c[nH]4)[C@H]3SC2)s1` [Example 3, 7-β-[4-(2'-amino-2'-carboxy)ethylimidazol-2-yl-thioacetamido]-3-[2-(2-methyl-1,3,4-thiazolyl)thiomethyl]-3-cephem-4-carboxylic acid] were, in that order, 11300 ng/mL, 12400 ng/mL, 13700 ng/mL and 9400 ng/mL.
On the same counts, the results for `N[C@@H](Cc1c[nH]c(SCC(=O)N[C@@H]2C(=O)N3C(C(=O)O)=C(CSc4nc[nH]n4)CS[C@H]23)n1)C(=O)O` [Example 4, 7-β-[4-(2'-amino-2'-carboxy)ethylimidazol-2-yl-thioacetamido]-3-[(1,3,4-triazole)thiomethyl]-3-cephem-4-carboxylic acid] are 2100 ng/mL, 1200 ng/mL, 400 ng/mL and 100 ng/mL.
On the same counts, the results for `N[C@@H](Cc1c[nH]c(SCC(=O)N[C@@H]2C(=O)N3C(C(=O)O)=C(CSc4cnn[nH]4)CS[C@H]23)n1)C(=O)O` [Example 5, 7-β-[4-(2'-amino-2'-carboxy)ethylimidazol-2-yl-thioacetamido]-3-[(1,2,3-triazole)thiomethyl]-3-cephem-4-carboxylic acid] are 12400 ng/mL, 13700 ng/mL, 14300 ng/mL and 10200 ng/mL.
For the molecule `Cc1nnc(SCC2=C(C(=O)O)N3C(=O)[C@@H](NC(=O)CSc4nc(C[C@H](N)C(=O)O)c[nH]4)[C@H]3SC2)o1` [Example 6, 7-β-[4-(2'-amino-2'-carboxy)ethylimidazol-2-yl-thioacetamido]-3-[(2-methyl-1,3,4-oxadiazole)thiomethyl]-3-cephem-4-carboxylic acid], in series [2], the concentration at 0.5 h came to 8000 ng/mL, the concentration at 1 h was 5300 ng/mL, the concentration at 2 h was 3600 ng/mL and the concentration at 4 h is 1000 ng/mL.
With `Cn1nncc1SCC1=C(C(=O)O)N2C(=O)[C@@H](NC(=O)CSc3nc(C[C@H](N)C(=O)O)c[nH]3)[C@H]2SC1` [Example 7, 7-β-[4-(2'-amino-2'-carboxy)ethylimidazol-2-yl-thioacetamido]-3-[(1-methyl-1H-1,2,3-triazole)thiomethyl]-3-cephem-4-carboxylic acid], in series [2], the concentration at 0.5 h was 4200 ng/mL, the concentration at 1 h is 2100 ng/mL, the concentration at 2 h amounted to 700 ng/mL and the concentration at 4 h stood at 400 ng/mL.
The like results for `CC1=C(C(=O)O)N2C(=O)[C@@H](NC(=O)CSc3nc(C[C@H](N)C(=O)O)c[nH]3)[C@H]2SC1` [Example 8, 7-β-[4-(2'-amino-2'-carboxy)ethylimidazol-2-yl-thioacetamido]-3-methyl-3-cephem-4-carboxylic acid] were, in that order, 14900 ng/mL, 11300 ng/mL, 7200 ng/mL and 4000 ng/mL.
On the same counts, the results for `COC1=C(C(=O)O)N2C(=O)[C@@H](NC(=O)CSc3nc(C[C@H](N)C(=O)O)c[nH]3)[C@H]2SC1` [Example 9, 7-β-[4-(2'-amino-2'-carboxy)ethylimidazol-2-yl-thioacetamido]-3-methoxy-3-cephem-4-carboxylic acid] are 8400 ng/mL, 6700 ng/mL, 3400 ng/mL and 1100 ng/mL.
Take `N[C@@H](Cc1c[nH]c(SCC(=O)N[C@@H]2C(=O)N3C(C(=O)O)=C(Cl)CS[C@H]23)n1)C(=O)O` [Example 10, 7-β-[4-(2'-amino-2'-carboxy)ethylimidazol-2-yl-thioacetamido]-3-chloro-3-cephem-4-carboxylic acid]: in series [2], the concentration at 0.5 h is 7400 ng/mL, the concentration at 1 h was 5900 ng/mL, the concentration at 2 h came out at 3000 ng/mL and the concentration at 4 h worked out at 1800 ng/mL.
On the same counts, the results for `N[C@@H](Cc1c[nH]c(SCC(=O)N[C@@H]2C(=O)N3C(C(=O)O)=CCS[C@H]23)n1)C(=O)O` [Example 11, 7-β-[4-(2'-amino-2'-carboxy)ethylimidazol-2-yl-thioacetamido]-3-cephem-4-carboxylic acid] are 8300 ng/mL, 7400 ng/mL, 4200 ng/mL and 1800 ng/mL.
Take `CO[C@@]1(NC(=O)CSc2nc(C[C@H](N)C(=O)O)c[nH]2)C(=O)N2C(C(=O)O)=C(COC(C)=O)CS[C@@H]21` [Example 12, 7-β-[4-(2'-amino-2'-carboxy)ethylimidazol-2-yl-thioacetamido]-7α-methoxy-3-acetoxymethyl-3-cephem-4-carboxylic acid]: the concentration at 0.5 h in series [1] (0.5 hr.) was found to be 3900 ng/mL. Moreover, the concentration at 1 h in series [1] (1 hr.) worked out at 1700 ng/mL. Moreover, the concentration at 4 h in series [1] (4 hrs.) was determined as 400 ng/mL.
On the same counts, the results for `CO[C@@]1(NC(=O)CSc2nc(C[C@H](N)C(=O)O)c[nH]2)C(=O)N2C(C(=O)O)=C(CSc3nnnn3C)CS[C@@H]21` [Example 13, 7-β-[4-(2'-amino-2'-carboxy)ethylimidazol-2-yl-thioacetamido]-7α-methoxy-3-[(1-methyl-1H-tetrazol-5-yl)thiomethyl]-3-cephem-4-carboxylic acid] are 4600 ng/mL, 3100 ng/mL and 1100 ng/mL.
On the same counts, the results for `CO[C@@]1(NC(=O)CSc2nc(C[C@H](N)C(=O)OCOC(C)=O)c[nH]2)C(=O)N2C(C(=O)OCOC(C)=O)=C(CSc3nnnn3C)CS[C@@H]21` [Example 14, 7-β-[4-(2'-amino-2'-carboxy)ethylimidazol-2-yl-thioacetamido]-7α-methoxy-3-[(1-methyl-1H-tetrazol-5-yl)thiomethyl]-3-cephem-4-carboxylic acid diacetoxymethyl ester] are 6800 ng/mL, 4100 ng/mL and 2300 ng/mL.

For the origin of these results see patent US4477659A, “Cephalosporin compound” (Asahi Kasei Kogyo Kabushiki Kaisha, priority 1981, dated 1984).
